Reference: paper PMC8718758, “Using Unnatural Protein Fusions to Engineer a Coenzyme Self-Sufficiency System for D-Phenyllactic Acid Biosynthesis in Escherichia coli” (Frontiers in Bioengineering and Biotechnology, 2021)

Target: T1, LfD-LDH (Limosilactobacillus fermentum, UniProt A0ABF7R291)
T1 construct: gene LAF_0632; gene cloned BamHI/XhoI in pET28a, expressed in E. coli BL21(DE3) (strain CP101); gene primers only in supplement
Test: enzymatic conversion of phenylpyruvate to D-phenyllactic acid
Format: biochemical
Conditions: co-substrate phenylpyruvate, pH 7, 35 °C; paper says only D-LDH here, LfD-LDH inferred; enzyme purity not described

T1 sequence (A0ABF7R291 1-332): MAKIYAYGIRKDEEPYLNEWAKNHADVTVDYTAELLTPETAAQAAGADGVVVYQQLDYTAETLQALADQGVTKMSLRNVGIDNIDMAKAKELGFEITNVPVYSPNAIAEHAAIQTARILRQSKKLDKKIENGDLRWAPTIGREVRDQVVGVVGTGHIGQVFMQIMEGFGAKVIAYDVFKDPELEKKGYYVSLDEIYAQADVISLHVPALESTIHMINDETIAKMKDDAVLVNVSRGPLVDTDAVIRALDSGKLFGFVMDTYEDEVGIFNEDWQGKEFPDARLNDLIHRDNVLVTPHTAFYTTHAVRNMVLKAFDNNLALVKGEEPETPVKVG

NC(=O)C1=CN([C@@H]2O[C@H](COP(=O)(O)OP(=O)(O)OC[C@H]3O[C@@H](n4cnc5c(N)ncnc54)[C@H](O)[C@@H]3O)[C@@H](O)[C@H]2O)C=CC1 [NADH]
enzymatic conversion of phenylpyruvate to D-phenyllactic acid: NADH-dependent D-LDH must rely on NADH to catalyze the conversion of PPA to D-PLA
